Source: patent US11896594B2, “Palatable antiparasitic formulations” (Zoetis Services LLC, priority 2018, dated 2024)

Experiments:
[1] = Moxidectin degradation in compressed tablets on accelerated stability (40° C./75% RH); format: physicochemical; conditions: for moxidectin degradation in the final tablets: 3 months 40°/75% RH; for moxidectin degradation: 40° C./75% RH; for moxidectin degradation in the finished product: 6 months accelerated stability
Excerpt: For the moxidectin granulation, four different polymers were screened. Initially, the moxidectin-polymer ratio was about 1:160 (about 21.82 w/w % polymer of intra granular portion). The polymers included hypromellose [hydroxypropylmethyl cellulose (HPMC), Poloxamer 188 (P188), ethyl cellulose, and hydroxypropyl methyl cellulose acetyl succinate MG (HPMC AS MG). […] Use of the polymers in the moxidectin granulation process provided stability to the moxidectin. […] HPMC concentration was then assessed to determine the effect on moxidectin stability in compressed tablets. Concentrations of moxidectin:HPMC were 1:20, 1:80, 1:120, and 1:160 in the moxidectin granulation. These amounts accounted for about 2.72 w/w %, 10.91 w/w %, 16.36 w/w %, and 21.82 w/w % of the moxidectin granulation, respectively. […] Therefore, the 1:80 ratio of moxidectin to HPMC was used to prepare the moxidectin granulations. The amount of HPMC in the moxidectin granulation is about 6 to 18 w/w %; the preferred amount is about 10 to 12 w/w %; and the most preferred amount is about 11 w/w %. In the final composition, the amount of HPMC is about 2.0 w/w % to about 4.0 w/w % of the total tablet weight; and more preferably, about 2.0 to 3 w/w % of the total tablet weight; and even more preferably, about 2.0 to 2.5 w/w % of the total tablet weight. To further control moxidectin degradation, the stability enhancer, meglumine, and the antioxidant, BHT, were added to the moxidectin granulation. […] Use of the higher concentration (2.72 w/w %) of meglumine was used initially to better control the acid catalyzed degradants. However, at 6 months, there was a greater increase in base catalyzed degradation of moxidectin at this concentration of meglumine. […] Similarly, moxidectin degradation was assessed using varying amounts of BHT in the moxidectin granulation.

[2] = test system: D. immitis; assay: Prevention of heartworm disease in dogs; format: in vivo; conditions: sensitive isolates; single dose; dogs

CO/N=C1\C[C@]2(C[C@@H]3C[C@@H](C/C=C(\C)C[C@@H](C)/C=C/C=C4\CO[C@@H]5[C@H](O)C(C)=C[C@@H](C(=O)O3)[C@]45O)O2)O[C@H](/C(C)=C/C(C)C)[C@H]1C [moxidectin]
moxidectin degradation in the final tablets ([1]; BHT 0 w/w % in moxidectin granulation): about 2.7%
moxidectin degradation in the final tablets ([1]; BHT 0.095 w/w % in granulation (0.018 w/w % of tablet)): about 1.4%
moxidectin degradation in the final tablets ([1]; BHT 0.19 w/w % in granulation (0.037 w/w % of tablet)): about 2.3%
moxidectin degradation in the final tablets ([1]; BHT 0.38 w/w % in granulation (0.074 w/w % of tablet)): about 2.2%
moxidectin degradation ([1]; HPMC AS MG in moxidectin granulation (about 1:160), 3-months): 12.1%
moxidectin degradation ([1]; HPMC in moxidectin granulation (moxidectin-polymer about 1:160), 3-months): 3.6%
moxidectin degradation ([1]; P188 (Poloxamer 188) in moxidectin granulation (about 1:160), 3-months): 5.2%
total moxidectin degradation ([1]; compressed tablets manufactured with HPMC, 6-month accelerated stability): 5-6%
moxidectin degradation ([1]; ethyl cellulose in moxidectin granulation (about 1:160), 3-months): 7.4%
moxidectin degradation in the final tablets ([1]; meglumine 0 w/w % in moxidectin granulation): about 2.4%
moxidectin degradation in the final tablets ([1]; meglumine 1.36 w/w % in granulation (0.27 w/w % of tablet)): about 1.0%
moxidectin degradation in the final tablets ([1]; meglumine 2.72 w/w % in granulation (0.54 w/w % of tablet)): about 0.7%
moxidectin degradation in the finished product ([1]; moxidectin:HPMC 1:20 (2.72 w/w % of granulation)): 5.04%
moxidectin degradation in the finished product ([1]; moxidectin:HPMC 1:80 (10.91 w/w % of granulation)): 2.41%
moxidectin degradation in the finished product ([1]; moxidectin:HPMC 1:120 (16.36 w/w % of granulation)): 2.26%
moxidectin degradation in the finished product ([1]; moxidectin:HPMC 1:160 (21.82 w/w % of granulation)): 1.75%
moxidectin degradation ([1]; without the use of a polymer, compressed tablets, 2-months): 16.7%
efficacy against sensitive D. immitis isolates [2]: 100%
